Measurements published in patent US20240409585A1, “MACROCYCLIC IMMUNOMODULATORS” (priority 2021, published 2024).
Numbered stars: 1 amine (or outer) side, 2 acyl side, 3 side chain; on linkers, the order of the positions; unused ones are H or OH. Bridge positions count the residues as written; N and C are the ends. Square brackets hold non-standard residues; d marks the D form. Peptide text beside a SMILES is read from it. X18 = O=C(O)COCCc1ccc(-c2ccc(C[C@H](N[*:1])C(=O)[*:2])cc2)cc1; X22 = NC(=O)c1cccc(-c2ccc(C[C@H](N[*:1])C(=O)[*:2])cc2)c1; X25 = N#CCCc1ccc(-c2ccc(C[C@H](N[*:1])C(=O)[*:2])cc2)cc1; X44 = COc1cc(F)cc(-c2ccc(C[C@H](N[*:1])C(=O)[*:2])cc2)c1; X29 = O=C([C@H](Cc1ccc(-c2cc(F)cc(F)c2)cc1)N[*:1])[*:2]; X30 = CCOc1cccc(-c2ccc(C[C@H](N[*:1])C(=O)[*:2])cc2)c1; X33 = O=C([C@H](Cc1ccc(-c2cccc(Cl)c2)cc1)N[*:1])[*:2]; X39 = COc1cccc(-c2ccc(C[C@H](N[*:1])C(=O)[*:2])cc2)c1; X40 = O=C([C@H](Cc1ccc(-c2cccc(O)c2)cc1)N[*:1])[*:2]; X36 = O=C([C@H](Cc1ccc(-c2ccsc2)cc1)N[*:1])[*:2]; Bip = N[C@@H](Cc1ccc(-c2ccccc2)cc1)C(=O)O; Phe(3-Br) = N[C@@H](Cc1cccc(Br)c1)C(=O)O; 2Thi = N[C@@H](Cc1cccs1)C(=O)O; NMeA = CN[C@@H](C)C(=O)O; Dab = NCC[C@H](N)C(=O)O

These compounds were tested against T1, PE-labeled human PD-L1-Ig binding to Jurkat cell line over-expressing human PD-1 (Jurkat-PD-1) (Homo sapiens, UniProt Q15116) (assay: Jurkat-PD-1 Cell Binding High-Content Screening Assay (CBA): Method 1). Settings: Jurkat-hPD-1 cells, PE-labeled PD-L1-Ig 20 nM final; read-out: Jurkat HPDL1 PD1 IC50 (uM) (Method 1).
T1 construct: expressed in transfected cells; host or cells: Jurkat
T1 sequence (Q15116 25-288): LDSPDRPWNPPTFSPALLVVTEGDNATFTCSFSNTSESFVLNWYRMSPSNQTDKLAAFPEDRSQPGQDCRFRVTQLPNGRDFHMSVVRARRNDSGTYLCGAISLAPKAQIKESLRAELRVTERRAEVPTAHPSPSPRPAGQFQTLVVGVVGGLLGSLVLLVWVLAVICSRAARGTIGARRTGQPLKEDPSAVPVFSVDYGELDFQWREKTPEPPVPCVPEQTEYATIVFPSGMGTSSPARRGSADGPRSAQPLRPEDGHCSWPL

IC50 [µM] | SMILES
0.88 | CC(C)C[C@@H]1NC(=O)[C@H](CCN)NC(=O)[C@@H](CC(C)C)NC(=O)[C@H](C)N(C)C(=O)[C@H](CCCNC(=N)N)NC(=O)[C@H](Cc2ccc(-c3ccc(CCOCC(=O)O)cc3)cc2)NC(=O)[C@H](C(C)C)NC(=O)[C@H](Cc2c[nH]c3ccccc23)NC(=O)[C@H](CC(=O)O)NC(=O)[C@H](Cc2ccc(O)cc2)NC(=O)[C@H](CC(N)=O)NC(=O)CSC[C@@H](C(=O)N[C@@H](C)C(N)=O)NC(=O)[C@H]([C@@H](C)O)NC(=O)[C@H](C(C)C)NC1=O [Compound 1210] ({CH2CO}-NYDWV[X18]R[NMeA][dL][Dab]LVTCA-NH2; thioether N-14)
0.37 | COc1cccc(-c2ccc(C[C@@H]3NC(=O)[C@H](C(C)C)NC(=O)[C@H](Cc4c[nH]c5ccccc45)NC(=O)[C@H](CC(=O)O)NC(=O)[C@H](Cc4ccc(O)cc4)NC(=O)[C@H](CC(N)=O)NC(=O)CSC[C@@H](C(=O)N[C@@H](C)C(N)=O)NC(=O)[C@H]([C@@H](C)O)NC(=O)[C@H](C(C)C)NC(=O)[C@H](CC(C)C)NC(=O)[C@H](CCN)NC(=O)[C@@H](CC(C)C)NC(=O)[C@H](C)N(C)C(=O)[C@H](CCCNC(=N)N)NC3=O)cc2)c1 [Compound 1211] ({CH2CO}-NYDWV[X39]R[NMeA][dL][Dab]LVTCA-NH2; thioether N-14)
0.69 | CC(C)C[C@@H]1NC(=O)[C@H](CCN)NC(=O)[C@@H](CC(C)C)NC(=O)[C@H](C)N(C)C(=O)[C@H](CCCNC(=N)N)NC(=O)[C@H](Cc2ccc(-c3cccc(O)c3)cc2)NC(=O)[C@H](C(C)C)NC(=O)[C@H](Cc2c[nH]c3ccccc23)NC(=O)[C@H](CC(=O)O)NC(=O)[C@H](Cc2ccc(O)cc2)NC(=O)[C@H](CC(N)=O)NC(=O)CSC[C@@H](C(=O)N[C@@H](C)C(N)=O)NC(=O)[C@H]([C@@H](C)O)NC(=O)[C@H](C(C)C)NC1=O [Compound 1212] ({CH2CO}-NYDWV[X40]R[NMeA][dL][Dab]LVTCA-NH2; thioether N-14)
0.25 | CC(C)C[C@@H]1NC(=O)[C@H](CCN)NC(=O)[C@@H](CC(C)C)NC(=O)[C@H](C)N(C)C(=O)[C@H](CCCNC(=N)N)NC(=O)[C@H](Cc2ccc(-c3ccc(CCC#N)cc3)cc2)NC(=O)[C@H](C(C)C)NC(=O)[C@H](Cc2c[nH]c3ccccc23)NC(=O)[C@H](CC(=O)O)NC(=O)[C@H](Cc2ccc(O)cc2)NC(=O)[C@H](CC(N)=O)NC(=O)CSC[C@@H](C(=O)N[C@@H](C)C(N)=O)NC(=O)[C@H]([C@@H](C)O)NC(=O)[C@H](C(C)C)NC1=O [Compound 1213] ({CH2CO}-NYDWV[X25]R[NMeA][dL][Dab]LVTCA-NH2; thioether N-14)
0.05 | CC(C)C[C@@H]1NC(=O)[C@H](CCCNC(=N)N)NC(=O)[C@@H](CC(C)C)NC(=O)[C@H]2CCCN2C(=O)[C@H](CCCNC(=N)N)NC(=O)[C@H](Cc2ccc(-c3ccccc3)cc2)NC(=O)[C@H](C(C)C)NC(=O)[C@H](Cc2c[nH]c3ccccc23)NC(=O)[C@H](CC(=O)O)NC(=O)[C@H](Cc2ccc(O)cc2)NC(=O)[C@H](CC(N)=O)NC(=O)CSC[C@@H](C(=O)N[C@@H](C)C(N)=O)NC(=O)[C@H]([C@@H](C)O)NC(=O)[C@H](C(C)C)NC1=O [Compound 1214] ({CH2CO}-NYDWV[Bip]R[dP][dL]RLVTCA-NH2; thioether N-14)
0.08 | CC(C)C[C@@H]1NC(=O)[C@H](Cc2c[nH]c3ccccc23)NC(=O)[C@H](CC(=O)O)NC(=O)[C@H](Cc2ccc(O)cc2)NC(=O)[C@H](CC(N)=O)NC(=O)CSC[C@@H](C(=O)N[C@@H](C)C(N)=O)NC(=O)[C@H]([C@@H](C)O)NC(=O)[C@H](C(C)C)NC(=O)[C@H](CC(C)C)NC(=O)[C@H](CCCNC(=N)N)NC(=O)[C@@H](CC(C)C)NC(=O)[C@H](C)N(C)C(=O)[C@H](CCCNC(=N)N)NC(=O)[C@H](Cc2ccc(-c3ccccc3)cc2)NC1=O [Compound 1215] ({CH2CO}-NYDWL[Bip]R[NMeA][dL]RLVTCA-NH2; thioether N-14)
0.03 | CC(C)C[C@@H]1NC(=O)[C@H](CCCNC(=N)N)NC(=O)[C@@H](CC(C)C)NC(=O)[C@H](C)N(C)C(=O)[C@H](C(C)C)NC(=O)[C@H](Cc2ccc(-c3ccccc3)cc2)NC(=O)[C@H](C(C)C)NC(=O)[C@H](Cc2c[nH]c3ccccc23)NC(=O)[C@H](CC(=O)O)NC(=O)[C@H](Cc2ccc(O)cc2)NC(=O)[C@H](CC(N)=O)NC(=O)CSC[C@@H](C(=O)N[C@@H](C)C(N)=O)NC(=O)[C@H]([C@@H](C)O)NC(=O)[C@H](C(C)C)NC1=O [Compound 1216] ({CH2CO}-NYDWV[Bip]V[NMeA][dL]RLVTCA-NH2; thioether N-14)
0.06 | CC(C)C[C@@H]1NC(=O)[C@H](CCN)NC(=O)[C@@H](CC(C)C)NC(=O)[C@H](C)N(C)C(=O)[C@H](CCCNC(=N)N)NC(=O)[C@H](Cc2ccc(-c3ccccc3)cc2)NC(=O)[C@H](C(C)C)NC(=O)[C@H](Cc2cccc(Br)c2)NC(=O)[C@H](CC(=O)O)NC(=O)[C@H](Cc2ccc(O)cc2)NC(=O)[C@H](CC(N)=O)NC(=O)CSC[C@@H](C(=O)N[C@@H](C)C(N)=O)NC(=O)[C@H]([C@@H](C)O)NC(=O)[C@H](C(C)C)NC1=O [Compound 1217] ({CH2CO}-NYD[Phe(3-Br)]V[Bip]R[NMeA][dL][Dab]LVTCA-NH2; thioether N-14)
0.2 | CC(C)C[C@@H]1NC(=O)[C@H](CCN)NC(=O)[C@@H](CC(C)C)NC(=O)[C@H](C)N(C)C(=O)[C@H](CCCNC(=N)N)NC(=O)[C@H](Cc2ccc(-c3ccccc3)cc2)NC(=O)[C@H](C(C)C)NC(=O)[C@H](Cc2cccs2)NC(=O)[C@H](CC(=O)O)NC(=O)[C@H](Cc2ccc(O)cc2)NC(=O)[C@H](CC(N)=O)NC(=O)CSC[C@@H](C(=O)N[C@@H](C)C(N)=O)NC(=O)[C@H]([C@@H](C)O)NC(=O)[C@H](C(C)C)NC1=O [Compound 1218] ({CH2CO}-NYD[2Thi]V[Bip]R[NMeA][dL][Dab]LVTCA-NH2; thioether N-14)
0.26 | CC(C)C[C@@H]1NC(=O)[C@H](CCN)NC(=O)[C@@H](CC(C)C)NC(=O)[C@H](C)N(C)C(=O)[C@H](CCCNC(=N)N)NC(=O)[C@H](Cc2ccc(-c3ccccc3)cc2)NC(=O)[C@H](C(C)C)NC(=O)[C@H](Cc2cccs2)NC(=O)[C@H](CC(=O)O)NC(=O)[C@H](Cc2ccc(O)cc2)NC(=O)[C@H](CC(N)=O)NC(=O)CSC[C@@H](C(=O)N[C@@H](C)C(N)=O)NC(=O)[C@H]([C@@H](C)O)NC(=O)[C@H](C(C)C)NC1=O [Compound 1219] ({CH2CO}-NYD[2Thi]V[Bip]R[NMeA][dL][Dab]LVTCA-NH2; thioether N-14)
0.26 | CC(C)C[C@@H]1NC(=O)[C@H](CCN)NC(=O)[C@@H](CC(C)C)NC(=O)[C@H](C)N(C)C(=O)[C@H](CCCNC(=N)N)NC(=O)[C@H](Cc2ccc(-c3cc(F)cc(F)c3)cc2)NC(=O)[C@H](C(C)C)NC(=O)[C@H](Cc2c[nH]c3ccccc23)NC(=O)[C@H](CC(=O)O)NC(=O)[C@H](Cc2ccc(O)cc2)NC(=O)[C@H](CC(N)=O)NC(=O)CSC[C@@H](C(=O)N[C@@H](C)C(N)=O)NC(=O)[C@H]([C@@H](C)O)NC(=O)[C@H](C(C)C)NC1=O [Compound 1220] ({CH2CO}-NYDWV[X29]R[NMeA][dL][Dab]LVTCA-NH2; thioether N-14)
0.22 | CCOc1cccc(-c2ccc(C[C@@H]3NC(=O)[C@H](C(C)C)NC(=O)[C@H](Cc4c[nH]c5ccccc45)NC(=O)[C@H](CC(=O)O)NC(=O)[C@H](Cc4ccc(O)cc4)NC(=O)[C@H](CC(N)=O)NC(=O)CSC[C@@H](C(=O)N[C@@H](C)C(N)=O)NC(=O)[C@H]([C@@H](C)O)NC(=O)[C@H](C(C)C)NC(=O)[C@H](CC(C)C)NC(=O)[C@H](CCN)NC(=O)[C@@H](CC(C)C)NC(=O)[C@H](C)N(C)C(=O)[C@H](CCCNC(=N)N)NC3=O)cc2)c1 [Compound 1221] ({CH2CO}-NYDWV[X30]R[NMeA][dL][Dab]LVTCA-NH2; thioether N-14)
0.12 | CC(C)C[C@@H]1NC(=O)[C@H](CCN)NC(=O)[C@@H](CC(C)C)NC(=O)[C@H](C)N(C)C(=O)[C@H](CCCNC(=N)N)NC(=O)[C@H](Cc2ccc(-c3cccc(Cl)c3)cc2)NC(=O)[C@H](C(C)C)NC(=O)[C@H](Cc2c[nH]c3ccccc23)NC(=O)[C@H](CC(=O)O)NC(=O)[C@H](Cc2ccc(O)cc2)NC(=O)[C@H](CC(N)=O)NC(=O)CSC[C@@H](C(=O)N[C@@H](C)C(N)=O)NC(=O)[C@H]([C@@H](C)O)NC(=O)[C@H](C(C)C)NC1=O [Compound 1222] ({CH2CO}-NYDWV[X33]R[NMeA][dL][Dab]LVTCA-NH2; thioether N-14)
0.32 | COc1cc(F)cc(-c2ccc(C[C@@H]3NC(=O)[C@H](C(C)C)NC(=O)[C@H](Cc4c[nH]c5ccccc45)NC(=O)[C@H](CC(=O)O)NC(=O)[C@H](Cc4ccc(O)cc4)NC(=O)[C@H](CC(N)=O)NC(=O)CSC[C@@H](C(=O)N[C@@H](C)C(N)=O)NC(=O)[C@H]([C@@H](C)O)NC(=O)[C@H](C(C)C)NC(=O)[C@H](CC(C)C)NC(=O)[C@H](CCN)NC(=O)[C@@H](CC(C)C)NC(=O)[C@H](C)N(C)C(=O)[C@H](CCCNC(=N)N)NC3=O)cc2)c1 [Compound 1223] ({CH2CO}-NYDWV[X44]R[NMeA][dL][Dab]LVTCA-NH2; thioether N-14)
0.04 | CC(C)C[C@@H]1NC(=O)[C@H](CCN)NC(=O)[C@@H](CC(C)C)NC(=O)[C@H](C)N(C)C(=O)[C@H](CCCNC(=N)N)NC(=O)[C@H](Cc2ccc(-c3ccsc3)cc2)NC(=O)[C@H](C(C)C)NC(=O)[C@H](Cc2c[nH]c3ccccc23)NC(=O)[C@H](CC(=O)O)NC(=O)[C@H](Cc2ccc(O)cc2)NC(=O)[C@H](CC(N)=O)NC(=O)CSC[C@@H](C(=O)N[C@@H](C)C(N)=O)NC(=O)[C@H]([C@@H](C)O)NC(=O)[C@H](C(C)C)NC1=O [Compound 1224] ({CH2CO}-NYDWV[X36]R[NMeA][dL][Dab]LVTCA-NH2; thioether N-14)
0.29 | CC(C)C[C@@H]1NC(=O)[C@H](CCN)NC(=O)[C@@H](CC(C)C)NC(=O)[C@H](C)N(C)C(=O)[C@H](CCCNC(=N)N)NC(=O)[C@H](Cc2ccc(-c3cccc(C(N)=O)c3)cc2)NC(=O)[C@H](C(C)C)NC(=O)[C@H](Cc2c[nH]c3ccccc23)NC(=O)[C@H](CC(=O)O)NC(=O)[C@H](Cc2ccc(O)cc2)NC(=O)[C@H](CC(N)=O)NC(=O)CSC[C@@H](C(=O)N[C@@H](C)C(N)=O)NC(=O)[C@H]([C@@H](C)O)NC(=O)[C@H](C(C)C)NC1=O [Compound 1225] ({CH2CO}-NYDWV[X22]R[NMeA][dL][Dab]LVTCA-NH2; thioether N-14)
